From patent US8114843B2, “Photoreactive regulator of protein function and methods of use thereof” (The Regents of the University of California, priority 2005, dated 2012) come the findings set out here.

One test concerns Purkinje neurons. Put plainly: Loose-patch extracellular recording in cerebellar slices. Format: cell-based, rat. The settings on record: 200 μM for 10 minutes; full-field 360 nm light; n=5. Here is the method:
Brain Slice Preparation. Parasagittal cerebellar slices were prepared using standard techniques approved by the UCLA Animal Care Committee. […] PAL attachment. […] For cerebellar slices, neuronal cell bodies were visualized using an upright microscope with a 40× water immersion lens and equipped with an infrared-DIC enhancement. Loose-patch extracellular recordings were performed using an Axopatch 200B amplifier (Axon Instruments). Electrophysiological recordings were filtered at 1 KHz and digitized at 2-4 KHz. Pipettes were typically 1.4-2.0 MΩ for recordings from PNs and 3.0-3.5 MΩ for interneurons and filled with aCSF. […] All recordings were performed at room temperature. […] Excitation filters were changed using a lambda 10-2 filter changer (Sutter Instruments) controlled via pCLAMP software.

For another test, the target named is T1, wild-type Shaker (E422) (Drosophila melanogaster, UniProt P08510, DEL6-46).
T1 construct: expressed in transfected cells; host or cells: HEK293
T1 sequence (P08510 other isoform, or with tags, fused parts or gaps DEL6-46): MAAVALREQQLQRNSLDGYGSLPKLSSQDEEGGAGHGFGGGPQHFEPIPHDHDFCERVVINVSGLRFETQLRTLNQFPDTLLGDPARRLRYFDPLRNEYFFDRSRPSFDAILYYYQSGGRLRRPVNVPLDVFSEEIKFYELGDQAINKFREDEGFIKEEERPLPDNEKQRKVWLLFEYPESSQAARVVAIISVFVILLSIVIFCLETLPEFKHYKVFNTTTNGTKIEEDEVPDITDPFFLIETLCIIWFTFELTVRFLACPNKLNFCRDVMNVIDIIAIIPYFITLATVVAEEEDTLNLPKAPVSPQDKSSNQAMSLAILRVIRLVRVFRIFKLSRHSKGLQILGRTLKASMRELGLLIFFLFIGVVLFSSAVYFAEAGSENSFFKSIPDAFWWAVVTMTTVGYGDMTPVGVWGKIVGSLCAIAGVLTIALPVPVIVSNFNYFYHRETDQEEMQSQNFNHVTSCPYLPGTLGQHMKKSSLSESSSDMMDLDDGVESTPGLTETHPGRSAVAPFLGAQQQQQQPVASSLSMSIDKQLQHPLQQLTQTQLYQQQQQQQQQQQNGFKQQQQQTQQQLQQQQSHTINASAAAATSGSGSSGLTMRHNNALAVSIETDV
Description: PAL photoswitching, whole-cell patch clamp in HEK293 cells. Format: cell-based. The settings on record: n=6. Here is the method:
(§1) Cell culture and transfection. HEK293 cells were grown in DMEM containing 5% fetal bovine serum, at 37° C., 7% CO2. For electrophysiology, cells were plated at 12×10^5 cells/cm^2 on poly-L-lysine coated coverslips and transfected using the calcium phosphate method. Recordings were performed 24-36 hours after transfection.
(§2) PAL attachment. HEK293 and hippocampal cells were rinsed in extracellular solution containing in mM: 138 NaCl, 1.5 KCl, 1.2 MgCl2, 2.5 CaCl2, 5 HEPES, 10 glucose and incubated at 37° C. in the dark with 200-250 μM PAL for 15 minutes. For slices, AAQ was diluted to 200 μM in aCSF and treatment was performed in the dark at room temperature for 10 minutes.
(§3) Electrophysiological recording. Recordings from HEK293 and hippocampal neurons were made in the whole-cell patch clamp configuration using a PC-501A amplifier (Warner Instruments). Pulse protocols and measurements were carried out with pCLAMP and a Digidata 1322 interface (Axon Instruments). For voltage-clamp experiment, cells were held at −70 mV. Data was recorded at 20 kHz and filtered at 2 kHz. Recording pipettes with 2.5-4 MΩ resistance were filled with intracellular solution containing in mM: 10 NaCl, 135 K-gluconate, 10 HEPES, 2 MgCl2, 2 MgATP, 1 EGTA, pH 7.4.
(§4) Illumination was provided using a xenon lamp (Sutter Instruments) with narrow band pass filters (380 BP10 for UV and 500 BP5 for visible light respectively). Excitation filters were changed using a lambda 10-2 filter changer (Sutter Instruments) controlled via pCLAMP software.
(§5) Percent photoswitching was defined as the difference between current in UV and visible light divided by current in UV. All data shown in bar graphs are averages±standard error of the mean.

Test [1] concerns the target T2, Shaker channel with engineered cysteine (E422C) (Drosophila melanogaster, UniProt P08510, DEL6-46/E422C).
T2 construct: expressed in transfected cells; host or cells: HEK293
The test is described as above. It counts as cell-based. The note with it: n=6. Here is the method:
as §1, §2, §3, §4, §5

In a further test the target is T3, BKα channels (Homo sapiens, UniProt Q12791).
T3 construct: expressed in transfected cells; host or cells: HEK cells
T3 sequence (Q12791 whole entry): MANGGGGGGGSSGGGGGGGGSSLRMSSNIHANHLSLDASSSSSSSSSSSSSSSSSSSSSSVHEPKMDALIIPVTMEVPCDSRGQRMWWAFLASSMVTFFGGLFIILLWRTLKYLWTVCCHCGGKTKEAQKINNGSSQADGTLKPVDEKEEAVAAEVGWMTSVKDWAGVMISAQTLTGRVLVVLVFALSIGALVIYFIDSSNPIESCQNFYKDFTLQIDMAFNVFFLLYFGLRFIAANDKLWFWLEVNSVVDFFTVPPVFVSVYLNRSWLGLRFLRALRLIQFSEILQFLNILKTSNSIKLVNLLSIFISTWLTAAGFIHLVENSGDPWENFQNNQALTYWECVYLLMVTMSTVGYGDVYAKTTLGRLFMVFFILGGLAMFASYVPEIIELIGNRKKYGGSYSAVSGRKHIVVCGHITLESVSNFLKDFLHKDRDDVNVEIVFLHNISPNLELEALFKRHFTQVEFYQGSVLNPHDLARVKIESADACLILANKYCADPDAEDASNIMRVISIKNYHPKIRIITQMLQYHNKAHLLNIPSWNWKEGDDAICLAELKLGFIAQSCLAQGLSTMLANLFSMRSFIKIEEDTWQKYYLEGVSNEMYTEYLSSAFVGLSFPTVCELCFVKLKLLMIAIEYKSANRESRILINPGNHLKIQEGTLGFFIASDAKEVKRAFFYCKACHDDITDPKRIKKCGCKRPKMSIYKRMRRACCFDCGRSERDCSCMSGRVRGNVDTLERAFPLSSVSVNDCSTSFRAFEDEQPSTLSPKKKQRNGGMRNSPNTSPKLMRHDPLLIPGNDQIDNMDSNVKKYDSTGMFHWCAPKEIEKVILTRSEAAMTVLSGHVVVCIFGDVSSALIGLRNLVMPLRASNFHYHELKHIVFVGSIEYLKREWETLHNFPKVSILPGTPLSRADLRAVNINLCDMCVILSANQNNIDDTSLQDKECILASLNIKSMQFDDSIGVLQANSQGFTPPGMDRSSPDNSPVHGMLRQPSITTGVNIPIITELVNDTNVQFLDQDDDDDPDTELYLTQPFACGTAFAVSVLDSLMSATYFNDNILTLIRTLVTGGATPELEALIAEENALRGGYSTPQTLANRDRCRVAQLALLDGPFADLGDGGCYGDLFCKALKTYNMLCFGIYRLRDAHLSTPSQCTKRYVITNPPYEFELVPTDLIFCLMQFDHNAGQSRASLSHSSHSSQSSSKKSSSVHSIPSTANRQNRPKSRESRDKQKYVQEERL
Description: PAL photoswitching, whole-cell patch clamp in HEK cells. The note with it: n=6. Format: cell-based. Here is the method: as §1, §2, §3, §4, §5

Another test relates to basket cells. Put plainly: Loose-patch extracellular recording in cerebellar slices. The note with it: 500 nm light; with AMPA, NMDA and GABAA receptor antagonists; n=6. It counts as cell-based, rat. The protocol: Brain Slice Preparation. Parasagittal cerebellar slices were prepared using standard techniques approved by the UCLA Animal Care Committee. The cerebellum was removed from the cranium of a 14-20 day old Sprague-Dawley rat, mounted on an agar support and sectioned parasagitally using a vibrotome (Leica VT-1000) while submerged in cold (<4° C.) artificial cerebrospinal fluid (aCSF) containing in mM: 119 NaCl, 26 NaHCO3, 11 glucose, 2.5 KCl, 2.5 CaCl2, 1.3 MgCl2, and 1 NaH2PO4 and saturated with 95% O2 and 5% CO2 Following sectioning, the […] slices were stored in 35° C. aCSF for 30 minutes and brought to room temperature for subsequent electrophysiological experiments.
as §2
For cerebellar slices, neuronal cell bodies were visualized using an upright microscope with a 40× water immersion lens and equipped with an infrared-DIC enhancement. Loose-patch extracellular recordings were performed using an Axopatch 200B amplifier (Axon Instruments). Electrophysiological recordings were filtered at 1 KHz and digitized at 2-4 KHz. […]

T2 sequence (P08510 other isoform, or with tags, fused parts or gaps DEL6-46/E422C): as the sequence (P08510 other isoform, or with tags, fused parts or gaps DEL6-46) above, with E381C counted along it

On to `C=CC(=O)Nc1ccc(/N=N/c2ccc(NC(=O)C[N+](CC)(CC)CC)cc2)cc1` [AAQ], for which, in the test on Purkinje neurons, the “increase in firing frequency” value is on record as 42±12%. Moreover, the “fraction of current that could be photoswitched” value at wild-type Shaker (E422) is 48±2%; in test [1], 39±1%. In addition, the “current regulated by light” value at BKα channels is recorded as roughly 45%. Moreover, in the test on basket cells, the “enhancement of firing frequency” value is 324±160%.
